The numbers were not newly measured in patent US10967066B2, “Stapled acid-sensitive endosome disrupting alginates” (University of Pittsburgh—Of the Commonwealth System of …, priority 2015, dated 2021), which cites them from elsewhere.

One data set concerns tumors. To be noted: mice.

With `CC(C)c1cc(C(=O)[O-])c(O)c(C(C)C)c1.CC(C)c1cc(C(=O)[O-])c(O)c(C(C)C)c1.[Cu+2]` [Cu(II)DIPS, copper(II) (3,5-diisopropylsalicylate)2], in the data set on cancer cells, the “hydrogen peroxide accumulation and cell death in cancer cells” value is listed as “induce hydrogen peroxide accumulation due to the conversion of radical oxygen into hydrogen peroxide, with this accumulation of hydrogen peroxide leading to cell death in cancer cells”. In the data set with tumors, the clearing tumors result is given as “effective in clearing tumors in mice”.
